Experimental data: PMC10302633 (Marine Drugs, 2023)

Legend:
rat α7 nAChRs = rat α7 nAChRs (Rattus norvegicus, UniProt Q05941); assay: cell-based; type: cell-based
human α7 nAChRs = human α7 nAChRs (Homo sapiens, UniProt P36544); assay: cell-based
rat α9α10 nAChRs = rat α9α10 nAChRs (Rattus norvegicus, UniProt P43144+Q9JLB5); type: cell-based
human α9α10 nAChRs = human α9α10 nAChRs (Homo sapiens, UniProt Q9GZZ6+Q9UGM1); type: cell-based
human α9α10 nAChRs, sequence (Q9UGM1 26-479 limits assumed): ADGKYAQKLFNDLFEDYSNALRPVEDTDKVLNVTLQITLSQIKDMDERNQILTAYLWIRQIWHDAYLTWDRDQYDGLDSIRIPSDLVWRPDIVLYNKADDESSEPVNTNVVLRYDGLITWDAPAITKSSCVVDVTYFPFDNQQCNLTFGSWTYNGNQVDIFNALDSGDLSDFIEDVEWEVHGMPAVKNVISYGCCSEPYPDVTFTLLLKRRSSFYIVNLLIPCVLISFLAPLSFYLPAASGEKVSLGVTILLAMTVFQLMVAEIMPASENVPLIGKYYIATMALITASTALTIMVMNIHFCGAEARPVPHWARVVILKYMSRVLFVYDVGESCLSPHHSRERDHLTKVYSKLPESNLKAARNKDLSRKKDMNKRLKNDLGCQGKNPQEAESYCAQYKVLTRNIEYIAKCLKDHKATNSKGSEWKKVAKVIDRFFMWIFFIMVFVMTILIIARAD
human α9α10 nAChRs, sequence (Q9GZZ6 25-450 limits assumed): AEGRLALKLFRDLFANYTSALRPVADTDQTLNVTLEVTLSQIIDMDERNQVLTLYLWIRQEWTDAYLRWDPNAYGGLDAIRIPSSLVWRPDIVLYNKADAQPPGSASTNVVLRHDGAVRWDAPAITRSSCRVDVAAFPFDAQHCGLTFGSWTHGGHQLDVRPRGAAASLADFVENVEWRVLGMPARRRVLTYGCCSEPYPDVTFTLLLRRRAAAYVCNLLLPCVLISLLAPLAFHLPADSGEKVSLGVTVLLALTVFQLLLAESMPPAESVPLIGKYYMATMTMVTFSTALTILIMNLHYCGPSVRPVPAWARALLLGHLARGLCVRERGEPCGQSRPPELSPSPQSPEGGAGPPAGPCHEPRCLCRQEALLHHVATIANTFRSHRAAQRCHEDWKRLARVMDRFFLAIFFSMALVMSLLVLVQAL

rat α7 nAChRs, sequence (Q05941 23-502 limits assumed): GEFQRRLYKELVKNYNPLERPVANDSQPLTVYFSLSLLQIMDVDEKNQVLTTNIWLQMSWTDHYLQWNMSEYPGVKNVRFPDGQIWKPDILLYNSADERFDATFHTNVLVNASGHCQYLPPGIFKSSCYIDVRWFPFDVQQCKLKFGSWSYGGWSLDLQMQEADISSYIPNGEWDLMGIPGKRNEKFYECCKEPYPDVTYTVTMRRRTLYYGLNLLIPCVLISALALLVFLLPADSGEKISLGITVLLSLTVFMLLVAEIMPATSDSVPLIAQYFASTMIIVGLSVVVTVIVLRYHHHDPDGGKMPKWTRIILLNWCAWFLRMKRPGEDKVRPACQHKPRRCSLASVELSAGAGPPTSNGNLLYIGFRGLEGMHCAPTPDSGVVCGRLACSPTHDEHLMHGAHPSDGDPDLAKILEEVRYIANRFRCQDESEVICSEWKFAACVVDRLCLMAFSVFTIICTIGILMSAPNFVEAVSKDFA
human α7 nAChRs, sequence (P36544 23-502 limits assumed): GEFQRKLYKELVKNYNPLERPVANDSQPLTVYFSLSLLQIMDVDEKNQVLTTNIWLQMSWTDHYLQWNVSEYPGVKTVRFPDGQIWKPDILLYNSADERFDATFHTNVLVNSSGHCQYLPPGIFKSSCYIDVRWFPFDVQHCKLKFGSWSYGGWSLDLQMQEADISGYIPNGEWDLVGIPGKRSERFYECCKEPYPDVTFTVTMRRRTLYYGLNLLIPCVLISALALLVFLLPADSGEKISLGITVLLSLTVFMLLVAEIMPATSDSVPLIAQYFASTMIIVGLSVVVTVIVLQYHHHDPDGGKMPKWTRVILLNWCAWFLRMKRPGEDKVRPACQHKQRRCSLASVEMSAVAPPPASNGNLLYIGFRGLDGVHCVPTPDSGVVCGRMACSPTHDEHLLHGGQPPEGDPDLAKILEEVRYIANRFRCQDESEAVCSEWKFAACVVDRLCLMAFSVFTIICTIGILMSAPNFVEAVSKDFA
rat α9α10 nAChRs, sequence (P43144 26-479 limits assumed): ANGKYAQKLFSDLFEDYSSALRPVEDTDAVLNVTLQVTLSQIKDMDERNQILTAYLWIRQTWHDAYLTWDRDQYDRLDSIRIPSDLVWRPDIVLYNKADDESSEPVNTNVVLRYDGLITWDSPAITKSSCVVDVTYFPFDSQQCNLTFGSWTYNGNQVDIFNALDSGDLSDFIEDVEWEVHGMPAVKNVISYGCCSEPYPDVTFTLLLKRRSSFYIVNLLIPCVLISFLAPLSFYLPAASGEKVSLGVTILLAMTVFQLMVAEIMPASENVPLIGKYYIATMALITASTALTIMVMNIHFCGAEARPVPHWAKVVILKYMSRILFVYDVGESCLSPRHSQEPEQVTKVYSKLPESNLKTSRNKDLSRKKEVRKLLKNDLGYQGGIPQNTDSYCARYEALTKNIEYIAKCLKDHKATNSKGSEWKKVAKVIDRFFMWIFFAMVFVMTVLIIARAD
rat α9α10 nAChRs, sequence (Q9JLB5 25-447 limits assumed): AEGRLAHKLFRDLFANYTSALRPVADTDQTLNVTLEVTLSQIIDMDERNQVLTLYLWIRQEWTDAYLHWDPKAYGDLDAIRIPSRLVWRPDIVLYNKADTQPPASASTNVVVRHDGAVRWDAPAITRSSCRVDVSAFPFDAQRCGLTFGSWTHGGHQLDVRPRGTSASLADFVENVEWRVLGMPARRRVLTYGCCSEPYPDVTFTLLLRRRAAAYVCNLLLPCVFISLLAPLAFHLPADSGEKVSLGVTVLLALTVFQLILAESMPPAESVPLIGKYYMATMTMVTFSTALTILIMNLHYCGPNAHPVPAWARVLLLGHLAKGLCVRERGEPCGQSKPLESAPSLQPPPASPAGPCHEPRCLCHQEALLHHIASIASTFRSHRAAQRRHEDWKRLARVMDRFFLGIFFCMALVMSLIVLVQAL

## N=C(N)NCCC[C@H](NC(=O)[C@@H]1CSSC[C@@H]2NC(=O)[C@@H](NC(=O)CN)CSSC[C@H](NC(=O)[C@H](CCCNC(=N)N)NC(=O)[C@@H]3CCCN3C(=O)[C@H](CC(=O)O)NC(=O)[C@H](CO)NC2=O)C(=O)N[C@@H](CCCNC(=N)N)C(=O)N[C@@H](Cc2ccc(O)cc2)C(=O)N[C@@H](CCCNC(=N)N)C(=O)N1)C(=O)O [RgIA]
Rat α7 nAChRs
  Hill Slope: 0.8 (0.4–1.1)
  IC50: 5.31 µM
  inhibition of ACh-evoked currents: 60%
Human α7 nAChRs
  Hill Slope: 0.7 (0.4–1.0)
  IC50: 4.61 µM
Rat α9α10 nAChRs
  Hill Slope: 0.8 (0.7–0.9)
Human α9α10 nAChRs
  Hill Slope: 0.5 (0.4–0.6)
